{"source": "PubChem BioAssay AID1963965", "about": "(Molecular Pharmacology Branch, DTP, NCI, 2024)", "system": "996289-038-R-J1-PDC spheroid viability", "experiment": "Anticancer human tumor 996289-038-R-J1-PDC patient-derived colon adenocarcinoma cell line growth inhibition [PI3K]", "conditions": "spheroids with HUVEC and MSC; for viability, T/C: stronger effect = lower value", "summary_of_the_method": "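Tumor cells were combined with HUVEC and MSCs into spheroids, then dosed with PI3K-inhibitor combinations over half-log ranges capped near clinical Cmax or 10 microM.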", "note": "Where “and” joins values, the source holds several entries; their conditions need not be identical. Equal entries are not always repeated."}
{"molecule": "Cn1ncnc1[C@H]1c2n[nH]c(=O)c3cc(F)cc(c23)N[C@@H]1c1ccc(F)cc1", "note": "+ CC(Nc1ccc2c(c1)OCCn1cc(N3C(=O)OCC3C(F)F)nc1-2)C(N)=O;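 further: spheroids exposed to compounds for seven days before viability read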;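 on viability, T/C: luminescence used as a proxy for viable cell amount; percent viability relative to DMSO vehicle control as 100%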", "values": [{"measurement": "IC50", "setting": "curve of first compound, second compound 0.00316 µM", "value": "> 100", "unit": "nM"}, {"measurement": "IC50", "setting": "curve of first compound, second compound 0.01 µM", "value": "> 100", "unit": "nM"}, {"measurement": "IC50", "setting": "curve of first compound, second compound 0.0316 µM", "value": "> 100", "unit": "nM"}, {"measurement": "IC50", "setting": "curve of first compound, second compound 0.1 µM", "value": "> 100", "unit": "nM"}, {"measurement": "IC50", "setting": "curve of first compound, second compound 0.316 µM", "value": "> 100", "unit": "nM"}, {"measurement": "IC50", "setting": "curve of first compound, second compound 1 µM", "value": "> 100", "unit": "nM"}, {"measurement": "viability, T/C", "setting": "second compound 0.00316 µM, first compound 0.000316 µM", "value": 109, "unit": "%"}, {"measurement": "viability, T/C", "setting": "second compound 0.00316 µM, first compound 0.001 µM", "value": 104, "unit": "%"}, {"measurement": "viability, T/C", "setting": "second compound 0.00316 µM, first compound 0.00316 µM", "value": 95, "unit": "%"}, {"measurement": "viability, T/C", "setting": "second compound 0.00316 µM, first compound 0.01 µM", "value": 112, "unit": "%"}, {"measurement": "viability, T/C", "setting": "second compound 0.00316 µM, first compound 0.0316 µM", "value": 99.5, "unit": "%"}, {"measurement": "viability, T/C", "setting": "second compound 0.00316 µM, first compound 0.1 µM", "value": 90.2, "unit": "%"}, {"measurement": "viability, T/C", "setting": "second compound 0.01 µM, first compound 0.000316 µM", "value": 103, "unit": "%"}, {"measurement": "viability, T/C", "setting": "second compound 0.01 µM, first compound 0.001 µM", "value": 102, "unit": "%"}, {"measurement": "viability, T/C", "setting": "second compound 0.01 µM, first compound 0.00316 µM", "value": 103, "unit": "%"}, {"measurement": "viability, T/C", "setting": "second compound 0.01 µM, first compound 0.01 µM", "value": 111, "unit": "%"}, {"measurement": "viability, T/C", "setting": "second compound 0.01 µM, first compound 0.0316 µM", "value": 106, "unit": "%"}, {"measurement": "viability, T/C", "setting": "second compound 0.01 µM, first compound 0.1 µM", "value": 98.6, "unit": "%"}, {"measurement": "viability, T/C", "setting": "second compound 0.0316 µM, first compound 0.000316 µM", "value": 114, "unit": "%"}, {"measurement": "viability, T/C", "setting": "second compound 0.0316 µM, first compound 0.001 µM", "value": 85.7, "unit": "%"}, {"measurement": "viability, T/C", "setting": "second compound 0.0316 µM, first compound 0.00316 µM", "value": 88.5, "unit": "%"}, {"measurement": "viability, T/C", "setting": "second compound 0.0316 µM, first compound 0.01 µM", "value": 101, "unit": "%"}, {"measurement": "viability, T/C", "setting": "second compound 0.0316 µM, first compound 0.0316 µM", "value": 97.3, "unit": "%"}, {"measurement": "viability, T/C", "setting": "second compound 0.0316 µM, first compound 0.1 µM", "value": 85.4, "unit": "%"}, {"measurement": "viability, T/C", "setting": "second compound 0.1 µM, first compound 0.000316 µM", "value": 89.1, "unit": "%"}, {"measurement": "viability, T/C", "setting": "second compound 0.1 µM, first compound 0.001 µM", "value": 87.6, "unit": "%"}, {"measurement": "viability, T/C", "setting": "second compound 0.1 µM, first compound 0.00316 µM", "value": 77.5, "unit": "%"}, {"measurement": "viability, T/C", "setting": "second compound 0.1 µM, first compound 0.01 µM", "value": 91.6, "unit": "%"}, {"measurement": "viability, T/C", "setting": "second compound 0.1 µM, first compound 0.0316 µM", "value": 92, "unit": "%"}, {"measurement": "viability, T/C", "setting": "second compound 0.1 µM, first compound 0.1 µM", "value": 78.3, "unit": "%"}, {"measurement": "viability, T/C", "setting": "second compound 0.316 µM, first compound 0.000316 µM", "value": 81.7, "unit": "%"}, {"measurement": "viability, T/C", "setting": "second compound 0.316 µM, first compound 0.001 µM", "value": 77.8, "unit": "%"}, {"measurement": "viability, T/C", "setting": "second compound 0.316 µM, first compound 0.00316 µM", "value": 81.2, "unit": "%"}, {"measurement": "viability, T/C", "setting": "second compound 0.316 µM, first compound 0.01 µM", "value": 82.2, "unit": "%"}, {"measurement": "viability, T/C", "setting": "second compound 0.316 µM, first compound 0.0316 µM", "value": 79.2, "unit": "%"}, {"measurement": "viability, T/C", "setting": "second compound 0.316 µM, first compound 0.1 µM", "value": 68.7, "unit": "%"}, {"measurement": "viability, T/C", "setting": "second compound 1 µM, first compound 0.000316 µM", "value": 53, "unit": "%"}, {"measurement": "viability, T/C", "setting": "second compound 1 µM, first compound 0.001 µM", "value": 59.8, "unit": "%"}, {"measurement": "viability, T/C", "setting": "second compound 1 µM, first compound 0.00316 µM", "value": 68.6, "unit": "%"}, {"measurement": "viability, T/C", "setting": "second compound 1 µM, first compound 0.01 µM", "value": 58.1, "unit": "%"}, {"measurement": "viability, T/C", "setting": "second compound 1 µM, first compound 0.0316 µM", "value": 59.2, "unit": "%"}, {"measurement": "viability, T/C", "setting": "second compound 1 µM, first compound 0.1 µM", "value": 54.2, "unit": "%"}]}
{"molecule": "CC(Nc1ncnc2nc[nH]c12)c1cc2cccc(Cl)c2c(=O)n1-c1ccccc1", "note": "(stereo not given)", "values": [{"measurement": "viability, T/C", "setting": "compound 0.0316 µM", "value": "99.9% [middle of 8 runs]"}, {"measurement": "viability, T/C", "setting": "compound 0.1 µM", "value": "98% [middle of 8 runs]"}, {"measurement": "viability, T/C", "setting": "compound 0.316 µM", "value": "97.6% [middle of 8 runs]"}, {"measurement": "viability, T/C", "setting": "compound 3.16 µM", "value": "89.2% [middle of 8 runs]"}, {"measurement": "viability, T/C", "setting": "compound 10 µM", "value": "95.7% [middle of 8 runs]"}, {"measurement": "IC50", "setting": "compound alone, run of 06/13/2023", "value": "> 10000", "unit": "nM"}]}
{"molecule": "Cn1ncc(Cl)c1-c1cc(C(=O)NC(CN)Cc2cccc(F)c2)sc1Cl", "note": "(stereo not given)", "values": [{"measurement": "viability, T/C", "setting": "compound 0.0316 µM", "value": "90% [middle of 4 runs]"}, {"measurement": "viability, T/C", "setting": "compound 0.1 µM", "value": "90.5% [middle of 4 runs]"}, {"measurement": "viability, T/C", "setting": "compound 0.316 µM", "value": "84% [middle of 4 runs]"}, {"measurement": "viability, T/C", "setting": "compound 1 µM", "value": "79.9% [middle of 4 runs]"}, {"measurement": "viability, T/C", "setting": "compound 3.16 µM", "value": "75.6% [middle of 4 runs]"}, {"measurement": "viability, T/C", "setting": "compound 10 µM", "value": "52.2% [middle of 4 runs]"}, {"measurement": "IC50", "setting": "curve of compound", "value": "> 10000 nM and 9820 nM"}]}
